Five molecules from patent publication US20040048283A1, “Novel method for screening bacterial transcription modulators” (priority 2000, published 2004) can be followed below.

The test system of one test is E. coli K12. Briefly: inhibition of growth in solid medium (inhibition diameter). It counts as cell-based. The settings on record: for diameter of inhibition, K12: solid medium. Here is the method: (§1) A preculture of the strains E. coli K12, S. aureus and S. epidermis in Mueller Hinton Broth medium (Mueller and Hinton, 1941) is carried out at 37° C., until an optical density of 0.1 at 650 nm is obtained. 100 μl of the preculture is added to 10 ml of the medium: 0.1% agarose, 10 mM sodium phosphate pH 7.4; 0.3 mg/ml trypcase-soy; 100 mM NaCl.
(§2) The mixture is poured into a […] Petri dish. Wells are made in the gelose and 5 μl of the solutions to be tested, containing the screened products, are placed in each well. The dishes are left at ambient temperature for 2 hours, then 10 ml of the medium (1% agarose; 10 mM sodium phosphate—pH 7.4-6% trypcase-soy) are poured into the Petri dish forming an overlay. After solidification, the dishes are incubated overnight at 37° C.
(§3) The antibacterial activity is evaluated by measuring the diameter of the bacterial growth inhibition of the zone at the centre of which the product was placed.

The next test deals with S aureus. The test is described as above. It is filed as cell-based. The settings on record: for diameter of inhibition, S aureus: solid medium. Here is the method:
as §1, §2, §3

The next test has as its system S epidermidis. Described as above. It counts as cell-based. Here is the method:
as §1, §2, §3

Test [1] addresses T1, bond between the core enzyme of the RNA polymerase and the protein σ^70 (Escherichia coli, UniProt P0A7Z4+P0A8T7+P0A8V2).
T1 construct: made in house
Briefly: sigma70-RNA polymerase bond test (ELISA-type complexation test). It is filed as binding, E. coli. Here is the method: Thus, the different compounds tested are incubated in the presence of the core enzyme in a microassay dish on which the protein σ^70 is adsorbed, each well of the plate containing 1 μM of σ^70 during the adsorption phase.
The sigma70 proteins and the RNA polymerase of E. coli are expressed and purified under standard conditions (Burgess et al., Biochemistry, 1975, October 21; 14(21): 4634-8; Burgess R., Methods Enzymol 1996; 273: 145-9). The sigma70 protein is stored at −80° C. in (20 mM tris HCl pH 8; 5 M guanidine chloride; 10 mM β-mercaptoethanol; 50% glycerol) at a concentration of 100 μM. The core RNA polymerase is stored at −80° C. in (20 mM tris HCl pH 8, 100 mM KCl, 10 mM β-mercaptoethanol, 50% glycerol) at a concentration of 1 μM. The antipolymerase monoclonal antibody was obtained and purified by standard techniques (Short Protocols in Molecular Biology 2nd edition, John Wiley & Its) then chemically coupled to activated peroxidase (Boehringer Mannheim Biochemica ref. 1428861) according to the supplier's recommendations.
The test is based on the adsorption of sigma70 on an ELISA plate for 12 hours at 4° C. (6 pmoles of protein diluted in 100 μl of PBS per well, on Nunc-immuno plates, Maxisorp.). The protein dilutions and the buffers were optimized in order to reduce the non-specific bond of the RNA polymerase. After washing the plate with PBS 0.1% tween20, the plate is saturated with 200 μl of PBS 0.1% tween20, 1% BSA then incubated for 1 hour at ambient temperature with the RNA polymerase of E. coli (0.25 pmole of core RNA polymerase in 100 μl of PBS 0.1% tween 20, 1% BSA, 10 mM MgCl2) in the presence or in the absence of an optional inhibitor. […] The sigma70-RNA polymerase antibody complex is detected with a substrate of peroxidase, O-phenylenediamine, or another appropriate medium. […]
After three washings with 0.1% PBS-T (v/v), the peroxidase substrate is added (OPD, Biorad). The reaction takes place for 2 to 3 minutes in darkness then an absorbance measurement is carried out at 490 nm, after stopping the reaction with 50 μl of 4N H2SO4. […]
For orientation: An ELISA detects its analyte on a solid surface through an enzyme-linked reagent.

Another test deals with E. coli TG1 cells. Kind of test: inhibition of growth in microassay dish. The settings on record: FIG. 4; optical density at 650 nm after 12 hours at 37° C. It counts as cell-based. As for the experimental part:
FIG. 4 corresponds to the inhibition of the growth of E. coli TG1 cells by the abovementioned compound 5,988,031. This figure represents the optical density measured at 650 nm (y-axis) with reference to the concentration of the compound 5,988,031 in μg/ml (x-axis).
The E. coli TG1 cells, diluted according to the protocol described hereafter in the experimental part, are incubated with increasing concentrations of the compound 5,988,031. The growth of the bacteria is measured at 650 nm after incubation for 12 hours at 37° C. under stirring in a microassay dish.
The various compounds isolated are tested for their TG1 E. coli bacteria growth-inhibiting properties. Cells in stationary phase are diluted to {fraction (1/10,000)} in LB medium (tryptone 10 g; yeast extract 5 g; NaCl 5 g) and are transfected in a microassay dish (200 μl/well). The molecules are added to 10% DMSO, at a final concentration of 100 mg/ml. […] After incubation overnight at 37° C. under stirring, the optical density of each well at 650 nm is measured.

The target of test [2] is bond between an antibody, for example 11D11, and the RNA polymerase (Escherichia coli, UniProt P0A7Z4+P0A8T7+P0A8V2). Kind of test: specificity: antibody-RNA polymerase bond. It is filed as binding, E. coli.
Another test concerns M. Luteus. Briefly: antibiotic activity on other strains tested. It is filed as cell-based. Conditions: concentration not given.
For test [3], the target named is assembly of the α, β and β′ subunits (Escherichia coli, UniProt P0A7Z4+P0A8T7+P0A8V2). Briefly: specificity: assembly of RNA polymerase subunits. It is filed as binding, E. coli.
In test [4] the target is T2, bond between the RNA polymerase and the protein NusA (Escherichia coli, UniProt P0A7Z4+P0A8T7+P0A8V2).
T2 construct: polyhistidine (C); made in house; host or cells: NusA: BL21 lambda DE3 E. coli cells (printed 'BL211amdaDE3'), pet21-type vector
Kind of test: NusA-RNA polymerase bond test (ELISA-type complexation test). It counts as binding, E. coli. As for the experimental part:
More precisely, the different compounds tested (from the family of 5,988,031) are incubated in the presence of core enzyme in a microassay dish on which the protein NusA is adsorbed at a concentration equal to 20 μg/ml.
The gene coding for the protein NusA and comprising a C-terminal polyhistidine tag was cloned in a pet21-type vector. After transfection in BL211amdaDE3 cells, the cells are cultured in LB medium at 37° C. under vigorous stirring. The production of protein is induced by the addition of 1 mM IPTG. After 3 hours' culture, the cells are recovered by centrifugation and lysed according to (Burgess et al., Biochemistry, 1975 October 21; 14(21): 4634-8). After centrifugation, the supernatant is passed over an Ni NTA agarose column (Quiagen) according to the supplier's recommendations. The protein NusA is stored at −80° C. in (20 mM tris HCl pH 8; 5 M guanidine chloride; 10 mM β-mercaptoethanol; 50% glycerol) at a concentration of 100 μM.
The test is based on the adsorption of NusA on an ELISA plate for 12 hours at 4° C. (6 pmoles of protein diluted in 100 μl of PBS per well on Nunc-immuno plates, Maxisorp.). The dilutions of protein and the buffers were optimized in order to reduce the non-specific bond of the RNA polymerase. […] The sigma70-RNA polymerase-antibody complex is detected with a substrate of peroxidase, O-phenylenediamine, or another appropriate medium. […]

[5] abbreviates: other strains tested, concentration not given.

Entries after “also recorded” stand apart in the source; their conditions may differ.

T1 sequence (P0A8T7 whole entry): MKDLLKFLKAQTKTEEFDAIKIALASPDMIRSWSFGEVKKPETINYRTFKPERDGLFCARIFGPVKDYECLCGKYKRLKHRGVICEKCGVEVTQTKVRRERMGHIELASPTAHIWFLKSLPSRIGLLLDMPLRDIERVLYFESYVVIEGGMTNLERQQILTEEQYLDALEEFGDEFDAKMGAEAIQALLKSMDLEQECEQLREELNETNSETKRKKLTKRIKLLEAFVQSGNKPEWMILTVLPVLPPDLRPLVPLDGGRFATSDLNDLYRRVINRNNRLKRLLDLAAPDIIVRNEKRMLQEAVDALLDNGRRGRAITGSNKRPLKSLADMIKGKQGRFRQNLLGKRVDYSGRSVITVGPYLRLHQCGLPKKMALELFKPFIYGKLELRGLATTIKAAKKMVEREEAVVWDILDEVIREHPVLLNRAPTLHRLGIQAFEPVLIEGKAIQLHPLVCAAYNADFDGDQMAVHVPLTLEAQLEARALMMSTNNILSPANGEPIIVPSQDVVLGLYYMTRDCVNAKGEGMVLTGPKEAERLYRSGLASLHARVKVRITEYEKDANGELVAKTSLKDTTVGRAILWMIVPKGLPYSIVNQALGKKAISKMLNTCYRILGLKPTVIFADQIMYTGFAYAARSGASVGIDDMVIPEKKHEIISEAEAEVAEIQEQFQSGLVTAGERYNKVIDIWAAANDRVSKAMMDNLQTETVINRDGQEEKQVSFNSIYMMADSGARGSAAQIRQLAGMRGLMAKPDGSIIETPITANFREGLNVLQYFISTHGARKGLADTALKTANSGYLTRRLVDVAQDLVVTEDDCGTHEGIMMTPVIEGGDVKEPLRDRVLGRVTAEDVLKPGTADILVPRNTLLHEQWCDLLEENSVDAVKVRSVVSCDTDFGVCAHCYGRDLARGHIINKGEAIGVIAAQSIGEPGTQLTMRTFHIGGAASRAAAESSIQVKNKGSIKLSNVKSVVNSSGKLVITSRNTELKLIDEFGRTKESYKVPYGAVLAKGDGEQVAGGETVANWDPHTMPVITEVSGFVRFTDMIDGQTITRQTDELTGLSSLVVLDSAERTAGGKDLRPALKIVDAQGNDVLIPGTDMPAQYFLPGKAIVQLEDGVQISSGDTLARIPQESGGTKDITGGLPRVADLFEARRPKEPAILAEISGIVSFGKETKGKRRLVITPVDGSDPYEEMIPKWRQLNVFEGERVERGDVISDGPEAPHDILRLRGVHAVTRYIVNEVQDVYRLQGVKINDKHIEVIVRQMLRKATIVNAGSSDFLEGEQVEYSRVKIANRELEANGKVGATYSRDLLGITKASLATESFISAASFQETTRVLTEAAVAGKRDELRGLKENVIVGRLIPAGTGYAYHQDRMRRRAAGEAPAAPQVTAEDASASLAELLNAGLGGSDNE
T1 sequence (P0A8V2 whole entry): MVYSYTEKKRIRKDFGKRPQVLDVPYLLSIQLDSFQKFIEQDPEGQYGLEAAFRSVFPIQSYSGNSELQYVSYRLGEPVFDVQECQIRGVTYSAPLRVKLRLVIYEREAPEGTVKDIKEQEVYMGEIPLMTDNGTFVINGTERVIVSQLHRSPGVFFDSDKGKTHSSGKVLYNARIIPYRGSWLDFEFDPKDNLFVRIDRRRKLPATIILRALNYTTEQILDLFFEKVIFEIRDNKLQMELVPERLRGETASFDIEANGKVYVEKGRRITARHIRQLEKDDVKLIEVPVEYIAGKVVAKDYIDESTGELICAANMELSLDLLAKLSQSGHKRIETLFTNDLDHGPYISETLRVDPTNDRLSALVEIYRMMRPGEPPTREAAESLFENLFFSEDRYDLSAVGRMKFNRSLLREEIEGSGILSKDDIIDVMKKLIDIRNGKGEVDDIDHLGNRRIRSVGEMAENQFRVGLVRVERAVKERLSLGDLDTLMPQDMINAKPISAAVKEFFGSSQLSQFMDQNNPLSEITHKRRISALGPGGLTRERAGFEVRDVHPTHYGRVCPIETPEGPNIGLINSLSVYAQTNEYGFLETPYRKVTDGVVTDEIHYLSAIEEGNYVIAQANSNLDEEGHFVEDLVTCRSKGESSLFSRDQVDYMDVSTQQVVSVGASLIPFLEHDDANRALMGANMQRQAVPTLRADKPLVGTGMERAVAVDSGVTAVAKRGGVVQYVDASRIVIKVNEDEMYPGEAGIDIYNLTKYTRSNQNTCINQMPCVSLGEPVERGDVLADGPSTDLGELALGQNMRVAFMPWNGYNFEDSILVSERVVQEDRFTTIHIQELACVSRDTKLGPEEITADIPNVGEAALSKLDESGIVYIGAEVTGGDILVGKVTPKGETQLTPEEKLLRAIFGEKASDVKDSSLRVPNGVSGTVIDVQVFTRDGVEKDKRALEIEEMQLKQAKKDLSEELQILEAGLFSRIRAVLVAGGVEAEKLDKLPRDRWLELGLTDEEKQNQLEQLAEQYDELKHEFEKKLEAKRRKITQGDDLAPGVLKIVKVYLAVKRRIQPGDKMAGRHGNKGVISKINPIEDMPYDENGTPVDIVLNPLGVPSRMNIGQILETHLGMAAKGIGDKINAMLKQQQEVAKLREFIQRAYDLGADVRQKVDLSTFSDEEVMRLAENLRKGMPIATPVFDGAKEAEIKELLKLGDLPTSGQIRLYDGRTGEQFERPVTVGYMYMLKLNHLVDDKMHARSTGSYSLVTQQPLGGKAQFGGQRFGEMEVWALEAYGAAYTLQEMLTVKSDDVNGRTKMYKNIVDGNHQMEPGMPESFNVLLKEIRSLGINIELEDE
T1 sequence (P0A7Z4 whole entry): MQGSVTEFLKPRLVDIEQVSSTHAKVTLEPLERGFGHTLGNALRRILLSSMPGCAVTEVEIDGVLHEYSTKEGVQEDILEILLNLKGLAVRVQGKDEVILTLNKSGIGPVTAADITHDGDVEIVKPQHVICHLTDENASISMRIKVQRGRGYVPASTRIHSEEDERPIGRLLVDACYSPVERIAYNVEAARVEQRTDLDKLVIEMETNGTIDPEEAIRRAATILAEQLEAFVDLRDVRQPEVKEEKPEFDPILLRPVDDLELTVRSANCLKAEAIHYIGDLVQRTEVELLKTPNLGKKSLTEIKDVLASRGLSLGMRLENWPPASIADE

For `O=C(/C=C/c1ccc(-c2ccc([N+](=O)[O-])cc2)o1)c1cc2ccccc2o1` [5,761,890], the “diameter of inhibition, K12” value in the test on E. coli K12 (500 μg/ml) is reported as “negative”. The “diameter of inhibition, S aureus” value in the test on S aureus (500 μg/ml) is “negative”. Also, the “diameter of inhibition, S epidermidis” value in the test with S epidermidis (500 μg/ml) is recorded as “negative”.
As to `Cc1ccc(C)n1-c1ccc(OCC(=O)O)cc1` [compound 5,988,031], the “inhibition of the bond between σ^70 and the RNA polymerase (in words)” value in [1] is “most active; also recorded: inhibits”. Besides, the IC50 in [1] (FIG. 1, σ^70 adsorbed on plate, core enzyme, antibody 11D11-peroxidase, read-out: concentration giving 50% inhibition of the bond between σ^70 and the RNA polymerase (converted)) is around 20.4 µM. The “inhibition of the growth of E. coli TG1 cells (in words)” value in the test on E. coli TG1 cells is “inhibits”. For the same molecule, the “inhibition of the bond between an antibody (11D11) and the RNA polymerase (in words)” value in test [2] is recorded as “not”. Moreover, the “activity on M. Luteus (in words)” value in the test on M. Luteus is “not active”. The “inhibition of the assembly of the α, β and β′ subunits (in words)” value in test [3] was “not”. Further, the “inhibition of the bond between NusA and the RNA polymerase (in words)” value in [4] is given as “inhibits”. Further, in the test with E. coli K12 (setting [5]), the “activity on E. coli K12 (in words)” value is listed as “not active”. For the same molecule, in the test with S aureus (setting [5]), the “activity on S. aureus (in words)” value is on record as “not active”.
On to `CN[C@H](CC(C)C)C(=O)N[C@H]1C(=O)N[C@@H](CC(N)=O)C(=O)N[C@H]2C(=O)N[C@H]3C(=O)N[C@H](C(=O)N[C@H](C(=O)O)c4cc(O)cc(O)c4-c4cc3ccc4O)[C@H](O)c3ccc(c(Cl)c3)Oc3cc2cc(c3O[C@@H]2O[C@H](CO)[C@@H](O)[C@H](O)[C@H]2O[C@H]2C[C@](C)(N)[C@H](O)[C@H](C)O2)Oc2ccc(cc2Cl)[C@H]1O` [vancomycin, reference compound], for which the “diameter of inhibition, K12” value in the test with E. coli K12 (50 μg/ml) was “negative”. In addition, the “diameter of inhibition, S aureus” value with S aureus (50 μg/ml) was found to be 5 mm. Besides, the “diameter of inhibition, S epidermidis” value in the test on S epidermidis (50 μg/ml) came to 5 mm.
As for `COc1ccc(-c2ccc(/C=C/C(=O)c3cc4ccccc4o3)o2)cc1` [compound 5,858,445], the “inhibition of the bond between σ^70 and the RNA polymerase (in words)” value in test [1] is “most active”. The “diameter of inhibition, K12” value in the test with E. coli K12 (500 μg/ml) is reported as “negative”. Besides, the “diameter of inhibition, S aureus” value in the test on S aureus (500 μg/ml) is 4.2 mm. For the same molecule, the “diameter of inhibition, S epidermidis” value with S epidermidis (500 μg/ml) is 4.2 mm.
For the molecule `O=C(/C=C/c1ccc(-c2cccc([N+](=O)[O-])c2)o1)c1cc2ccccc2o1` [5,768,818], the “diameter of inhibition, K12” value in the test on E. coli K12 (500 μg/ml) is “negative”. Moreover, the “diameter of inhibition, S aureus” value in the test on S aureus (500 μg/ml) was “negative”. In addition, the “diameter of inhibition, S epidermidis” value in the test on S epidermidis (500 μg/ml) was “negative”.
